Assay [1] has as its target T1, human GLP-1R (Homo sapiens, UniProt P43220).
T1 construct: host or cells: CHO-K1
Description: cAMP receptor activation assay, human GLP-1R cloned into CHO cells (DiscoverX LeadHunter / cAMP Hunter). The following applies: for Selectivity Ratio GLP-1R vs GCGR: SR = GCGR EC50/GLP-1 EC50, 0.1% BSA. Format: cell-based.
Description: (§1) Cellular assays were carried out using standard cellular assays (DiscoveRx, LeadHunter assays) using readout of cAMP stimulation or arrestin activation. Compounds were weighed precisely in an amount of approximately 1 mg and shipped to DiscoverX (Fremont, Calif.) for dilution and assay. […] Assays were carried out in the presence of 0.1% ovalbumin. […] Use of 0.1% ovalbumin can avoid this problem.
(§2) Assays were carried out in the presence of 0.1% ovalbumin. […] Use of 0.1% ovalbumin can avoid this problem.
(§3) Receptor activation assays were performed at DiscoverX laboratories (Fremont, Calif.) using human GLP-1R and GCGR cloned into Chinese Hamster Ovary (CHO) cells (LeadHunter Discovery Services; assay product 86-0007D cAMP Hunter™ using huGLP1R and huGCGR; whole cell cAMP accumulation assays; cell lines used were cAMP Hunter™ CHO-K1 GCGR Gs Cell Line, catalog 95-0042C2 and cAMP Hunter™ CHO-K1 GLP1 Gs Cell Line, catalog 95-0062C2; readout of accumulated cAMP was made using readout HitHunter cAMP XS+ assay). Cell lines are maintained at DiscoverX and were incubated with test agents for 30 m at 37° C. for accumulation of cAMP. […] Results described herein are from single assays performed on cells in duplicate and data were replotted in Prism 5 to provide pEC50 (SE) data.
(§4) In vitro data are presented as pEC50 (SE) determined in Prism 5 by nonlinear regression analysis of the raw fluorescence data normalized by corresponding response to internal standards (see Supporting Information for data plots).

In assay [2] the target is GCGR (Homo sapiens, UniProt P47871). Description: cAMP receptor activation assay, human GCGR cloned into CHO cells (DiscoverX LeadHunter / cAMP Hunter). It counts as cell-based. Set-up: host or cells: CHO-K1.
Description: as §1, §2, §3, §4
Setting [3] is: ratio of EC50 in 0.1% BSA and 0.1% ovalbumin.
Where [4] appears, read: cAMP, CHO cells, 0.1% BSA containing buffers, read-out: pEC50 (SE) hu GLP-1 (converted).
The mark [5] stands for this setting: cAMP, CHO cells, 0.1% BSA containing buffers, read-out: pEC50 (SE) huGCGR (converted).

Like-named read-outs stand apart in the source and are kept apart here.

Sequence of GCGR (P47871 26-477): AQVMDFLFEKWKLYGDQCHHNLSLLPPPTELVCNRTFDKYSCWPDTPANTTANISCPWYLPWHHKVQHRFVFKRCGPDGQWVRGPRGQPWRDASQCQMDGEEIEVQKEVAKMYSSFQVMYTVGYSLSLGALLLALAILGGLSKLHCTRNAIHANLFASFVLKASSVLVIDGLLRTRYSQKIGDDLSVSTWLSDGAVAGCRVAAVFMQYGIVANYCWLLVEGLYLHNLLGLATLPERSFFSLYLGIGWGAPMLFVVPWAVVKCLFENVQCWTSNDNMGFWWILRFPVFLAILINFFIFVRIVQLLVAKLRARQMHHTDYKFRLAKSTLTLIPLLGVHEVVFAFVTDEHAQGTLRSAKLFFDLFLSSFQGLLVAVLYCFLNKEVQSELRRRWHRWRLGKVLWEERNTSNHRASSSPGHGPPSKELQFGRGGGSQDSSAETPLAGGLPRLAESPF
T1 sequence (P43220 24-463): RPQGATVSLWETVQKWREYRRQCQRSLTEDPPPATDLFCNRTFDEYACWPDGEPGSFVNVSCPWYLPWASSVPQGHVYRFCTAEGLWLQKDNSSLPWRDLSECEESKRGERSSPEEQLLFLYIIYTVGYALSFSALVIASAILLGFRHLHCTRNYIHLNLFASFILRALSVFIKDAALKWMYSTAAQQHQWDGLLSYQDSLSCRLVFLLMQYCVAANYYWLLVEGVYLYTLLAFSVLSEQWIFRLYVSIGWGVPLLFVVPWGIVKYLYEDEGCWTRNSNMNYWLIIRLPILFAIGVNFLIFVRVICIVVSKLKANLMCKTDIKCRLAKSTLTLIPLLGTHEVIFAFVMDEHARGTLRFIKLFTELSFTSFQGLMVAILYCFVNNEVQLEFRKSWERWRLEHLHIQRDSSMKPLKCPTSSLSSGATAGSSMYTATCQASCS

For the compound `CCCCCCCCCCCCCCCCO[C@@H]1O[C@H](CO[C@H]2O[C@H](C(=O)NCCCC[C@@H]3NC(=O)[C@@H](NC(=O)[C@H](CC(=O)O)NC(=O)[C@H](CC(C)C)NC(=O)[C@H](Cc4ccc(O)cc4)NC(=O)[C@H](CCCCN)NC(=O)[C@H](CO)NC(=O)[C@H](Cc4ccc(O)cc4)NC(=O)[C@H](CC(=O)O)NC(=O)[C@H](CO)NC(=O)[C@@H](NC(=O)[C@H](Cc4ccccc4)NC(=O)[C@@H](NC(=O)CNC(=O)[C@H](CCC(N)=O)NC(=O)C(C)(C)NC(=O)[C@@H](N)Cc4c[nH]cn4)[C@@H](C)O)[C@@H](C)O)CCC(=O)NCCCC[C@@H](C(=O)N[C@@H](CCC(=O)O)C(=O)N[C@@H](Cc4ccccc4)C(=O)N[C@H](C(=O)N[C@@H](CCC(N)=O)C(=O)N[C@@H](Cc4c[nH]c5ccccc45)C(=O)N[C@@H](CC(C)C)C(=O)N[C@@H](CC(C)C)C(=O)N[C@@H](CCC(N)=O)C(=O)N[C@H](C(N)=O)[C@@H](C)O)[C@@H](C)CC)NC(=O)[C@H](C)NC(=O)[C@H](C)NC3=O)[C@H](O)[C@H](O)[C@H]2O)[C@@H](O)[C@H](O)[C@H]1O` [EU-A1588], in assay [1] (setting [3]), the “Ovalbumin vs. BSA - fold improv/worsen GLP-1 R” value amounted to 5 fold. In addition, in assay [2] (setting [3]), the “Ovalbumin vs. BSA - fold improv/worsen GCG R” value turned out to be 6 fold.
For `CC[C@H](C)[C@H](NC(=O)[C@H](Cc1ccccc1)NC(=O)[C@H](CCC(=O)O)NC(=O)[C@@H]1CCCCNC(=O)CC[C@H](NC(=O)[C@H](CC(=O)O)NC(=O)[C@H](CC(C)C)NC(=O)[C@H](Cc2ccc(O)cc2)NC(=O)[C@H](CCCCN)NC(=O)[C@H](CO)NC(=O)[C@H](Cc2ccc(O)cc2)NC(=O)[C@H](CC(=O)O)NC(=O)[C@H](CO)NC(=O)[C@@H](NC(=O)[C@H](Cc2ccccc2)NC(=O)[C@@H](NC(=O)CNC(=O)[C@H](CCC(N)=O)NC(=O)C(C)(C)NC(=O)[C@@H](N)Cc2c[nH]cn2)[C@@H](C)O)[C@@H](C)O)C(=O)N[C@@H](CCC(N)=O)C(=O)N[C@@H](C)C(=O)N[C@@H](C)C(=O)N1)C(=O)N[C@@H](CCCCNC(=O)[C@H]1O[C@@H](OCCCCCCCCCCCCCCCC(=O)O)[C@H](O)[C@@H](O)[C@@H]1O)C(=O)N[C@@H](Cc1c[nH]c2ccccc12)C(=O)N[C@@H](CC(C)C)C(=O)N[C@@H](CC(C)C)C(=O)N[C@@H](CCC(N)=O)C(=O)N[C@H](C(N)=O)[C@@H](C)O` [EU-A1871], the EC50 worked out at 162 pM in assay [1] (EC50 cAMP GLP-1 R (pM) 0.1% BSA, Table 5, 0.1% BSA) and 461 pM in assay [2] (EC50 cAMP glucagon R (pM) 0.1% BSA, Table 5, 0.1% BSA).
For the compound `CC[C@H](C)[C@H](NC(=O)[C@H](Cc1ccccc1)NC(=O)[C@H](CCC(=O)O)NC(=O)[C@@H]1CCCCNC(=O)CC[C@H](NC(=O)[C@H](CC(=O)O)NC(=O)[C@H](CC(C)C)NC(=O)[C@H](Cc2ccc(O)cc2)NC(=O)[C@H](CCCCN)NC(=O)[C@H](CO)NC(=O)[C@H](Cc2ccc(O)cc2)NC(=O)[C@H](CC(=O)O)NC(=O)[C@H](CO)NC(=O)[C@@H](NC(=O)[C@H](Cc2ccccc2)NC(=O)[C@@H](NC(=O)CNC(=O)[C@H](CCC(N)=O)NC(=O)C(C)(C)NC(=O)[C@@H](N)Cc2c[nH]cn2)[C@@H](C)O)[C@@H](C)O)C(=O)N[C@@H](CCC(N)=O)C(=O)N[C@@H](C)C(=O)N[C@@H](C)C(=O)N1)C(=O)N[C@@H](CCCCNC(=O)[C@H]1O[C@@H](OCCCCCCCCCCCCCCCCCC(=O)O)[C@H](O)[C@@H](O)[C@@H]1O)C(=O)N[C@@H](Cc1c[nH]c2ccccc12)C(=O)N[C@@H](CC(C)C)C(=O)N[C@@H](CC(C)C)C(=O)N[C@@H](CCC(N)=O)C(=O)N[C@H](C(N)=O)[C@@H](C)O` [EU-A1872], the EC50 in assay [1] (read-out: EC50 cAMP GLP-1 R (pM) 0.1% BSA, Table 5, 0.1% BSA) was determined as 1270 pM; in assay [1] (read-out: EC50 cAMP GLP-1 R (pM) 0.1% BSA, Table 6, 0.1% BSA), 1270 pM; in assay [2] (read-out: EC50 cAMP glucagon R (pM) 0.1% Ovalb, Table 5, 0.1% ovalbumin) it was 86 pM.
With `CCCCCCCCO[C@@H]1O[C@H](C(=O)NCCCC[C@H](NC(=O)[C@@H](NC(=O)[C@H](Cc2ccccc2)NC(=O)[C@H](CCC(=O)O)NC(=O)[C@@H]2CCCCNC(=O)CC[C@H](NC(=O)[C@H](CC(=O)O)NC(=O)[C@H](CC(C)C)NC(=O)[C@H](Cc3ccc(O)cc3)NC(=O)[C@H](CCCCN)NC(=O)[C@H](CO)NC(=O)[C@H](Cc3ccc(O)cc3)NC(=O)[C@H](CC(=O)O)NC(=O)[C@H](CO)NC(=O)[C@@H](NC(=O)[C@H](Cc3ccccc3)NC(=O)[C@@H](NC(=O)CNC(=O)[C@H](CCC(N)=O)NC(=O)C(C)(C)NC(=O)[C@@H](N)Cc3c[nH]cn3)[C@@H](C)O)[C@@H](C)O)C(=O)N[C@@H](CCC(N)=O)C(=O)N[C@@H](C)C(=O)N[C@@H](C)C(=O)N2)[C@@H](C)CC)C(=O)N[C@@H](Cc2c[nH]c3ccccc23)C(=O)N[C@@H](CC(C)C)C(=O)N[C@@H](CC(C)C)C(=O)N[C@@H](CCC(N)=O)C(=O)N[C@H](C(N)=O)[C@@H](C)O)[C@@H](O)[C@H](O)[C@H]1O` [analogue 1], in assay [1], the “Selectivity Ratio GLP-1R vs GCGR” value turned out to be 3. The EC50 in assay [1] (cAMP, CHO cells, 0.1% BSA containing buffers, read-out: EC50 hGLP-1R) is 8 pM; in assay [1] (setting [4]) it was 8.51 pM; in assay [2] (setting [5]) it was 20 pM.
As for `CCCCCCCCCCCCO[C@@H]1O[C@H](C(=O)NCCCC[C@H](NC(=O)[C@@H](NC(=O)[C@H](Cc2ccccc2)NC(=O)[C@H](CCC(=O)O)NC(=O)[C@@H]2CCCCNC(=O)CC[C@H](NC(=O)[C@H](CC(=O)O)NC(=O)[C@H](CC(C)C)NC(=O)[C@H](Cc3ccc(O)cc3)NC(=O)[C@H](CCCCN)NC(=O)[C@H](CO)NC(=O)[C@H](Cc3ccc(O)cc3)NC(=O)[C@H](CC(=O)O)NC(=O)[C@H](CO)NC(=O)[C@@H](NC(=O)[C@H](Cc3ccccc3)NC(=O)[C@@H](NC(=O)CNC(=O)[C@H](CCC(N)=O)NC(=O)C(C)(C)NC(=O)[C@@H](N)Cc3c[nH]cn3)[C@@H](C)O)[C@@H](C)O)C(=O)N[C@@H](CCC(N)=O)C(=O)N[C@@H](C)C(=O)N[C@@H](C)C(=O)N2)[C@@H](C)CC)C(=O)N[C@@H](Cc2c[nH]c3ccccc23)C(=O)N[C@@H](CC(C)C)C(=O)N[C@@H](CC(C)C)C(=O)N[C@@H](CCC(N)=O)C(=O)N[C@H](C(N)=O)[C@@H](C)O)[C@@H](O)[C@H](O)[C@H]1O` [analogue 3], the EC50 in assay [2] (setting [5]) was 28.8 pM.
On to `CCCCCCCCCCCCCCCCCCO[C@@H]1O[C@H](C(=O)NCCCC[C@H](NC(=O)[C@@H](NC(=O)[C@H](Cc2ccccc2)NC(=O)[C@H](CCC(=O)O)NC(=O)[C@@H]2CCCCNC(=O)CC[C@H](NC(=O)[C@H](CC(=O)O)NC(=O)[C@H](CC(C)C)NC(=O)[C@H](Cc3ccc(O)cc3)NC(=O)[C@H](CCCCN)NC(=O)[C@H](CO)NC(=O)[C@H](Cc3ccc(O)cc3)NC(=O)[C@H](CC(=O)O)NC(=O)[C@H](CO)NC(=O)[C@@H](NC(=O)[C@H](Cc3ccccc3)NC(=O)[C@@H](NC(=O)CNC(=O)[C@H](CCC(N)=O)NC(=O)C(C)(C)NC(=O)[C@@H](N)Cc3c[nH]cn3)[C@@H](C)O)[C@@H](C)O)C(=O)N[C@@H](CCC(N)=O)C(=O)N[C@@H](C)C(=O)N[C@@H](C)C(=O)N2)[C@@H](C)CC)C(=O)N[C@@H](Cc2c[nH]c3ccccc23)C(=O)N[C@@H](CC(C)C)C(=O)N[C@@H](CC(C)C)C(=O)N[C@@H](CCC(N)=O)C(=O)N[C@H](C(N)=O)[C@@H](C)O)[C@@H](O)[C@H](O)[C@H]1O` [analogue 6], for which the “Selectivity Ratio GLP-1R vs GCGR” value in assay [1] is 17. Further, the “Selectivity Ratio (SR=GCGR EC50/GLP-1 EC50)” value in assay [2] turned out to be 17. The EC50 in assay [2] (text on Table 17, read-out: EC50 values for GCGR) came out at 884 pM.
With `CCCCCCCCCCCCO[C@@H]1O[C@H](C(=O)O)[C@@H](O[C@H]2O[C@H](C(=O)NCCCC[C@H](NC(=O)[C@@H](NC(=O)[C@H](Cc3ccccc3)NC(=O)[C@H](CCC(=O)O)NC(=O)[C@@H]3CCCCNC(=O)CC[C@H](NC(=O)[C@H](CC(=O)O)NC(=O)[C@H](CC(C)C)NC(=O)[C@H](Cc4ccc(O)cc4)NC(=O)[C@H](CCCCN)NC(=O)[C@H](CO)NC(=O)[C@H](Cc4ccc(O)cc4)NC(=O)[C@H](CC(=O)O)NC(=O)[C@H](CO)NC(=O)[C@@H](NC(=O)[C@H](Cc4ccccc4)NC(=O)[C@@H](NC(=O)CNC(=O)[C@H](CCC(N)=O)NC(=O)C(C)(C)NC(=O)[C@@H](N)Cc4c[nH]cn4)[C@@H](C)O)[C@@H](C)O)C(=O)N[C@@H](CCC(N)=O)C(=O)N[C@@H](C)C(=O)N[C@@H](C)C(=O)N3)[C@@H](C)CC)C(=O)N[C@@H](Cc3c[nH]c4ccccc34)C(=O)N[C@@H](CC(C)C)C(=O)N[C@@H](CC(C)C)C(=O)N[C@@H](CCC(N)=O)C(=O)N[C@H](C(N)=O)[C@@H](C)O)[C@@H](O)[C@H](O)[C@H]2O)[C@H](O)[C@H]1O` [analogue 7], the values for the EC50 in assay [1] and in assay [2] (setting [5]) were 50.1 pM and 14.8 pM, respectively.
Consider `CCCCCCCCCCCCCCO[C@@H]1O[C@H](C(=O)NCCCC[C@H](N)C(=O)NCCCC[C@H](NC(=O)[C@@H](NC(=O)[C@H](Cc2ccccc2)NC(=O)[C@H](CCC(=O)O)NC(=O)[C@@H]2CCCCNC(=O)CC[C@H](NC(=O)[C@H](CC(=O)O)NC(=O)[C@H](CC(C)C)NC(=O)[C@H](Cc3ccc(O)cc3)NC(=O)[C@H](CCCCN)NC(=O)[C@H](CO)NC(=O)[C@H](Cc3ccc(O)cc3)NC(=O)[C@H](CC(=O)O)NC(=O)[C@H](CO)NC(=O)[C@@H](NC(=O)[C@H](Cc3ccccc3)NC(=O)[C@@H](NC(=O)CNC(=O)[C@H](CCC(N)=O)NC(=O)C(C)(C)NC(=O)[C@@H](N)Cc3c[nH]cn3)[C@@H](C)O)[C@@H](C)O)C(=O)N[C@@H](CCC(N)=O)C(=O)N[C@@H](C)C(=O)N[C@@H](C)C(=O)N2)[C@@H](C)CC)C(=O)N[C@@H](Cc2c[nH]c3ccccc23)C(=O)N[C@@H](CC(C)C)C(=O)N[C@@H](CC(C)C)C(=O)N[C@@H](CCC(N)=O)C(=O)N[C@H](C(N)=O)[C@@H](C)O)[C@@H](O)[C@H](O)[C@H]1O` [analogue 13], for which the “Selectivity Ratio GLP-1R vs GCGR” value in assay [1] is reported as 5. Besides, the EC50 in assay [1] (setting [4]) was 37.2 pM. The “Selectivity Ratio (SR=GCGR EC50/GLP-1 EC50)” value in assay [2] is on record as 5.
Regarding exendin-4 [reference compound], in assay [1], the “Fold Improvement GLP-1R” value came out at 1 and the “fold improvement on replacing BSA (0.1%) with OVA (0.1%)” value was “negligible”.
